# Laboratory results as given in patent US20060116423A1, “Methods and compositions for treatment of central nervous system injury with isothiocyanates” (priority 2004, published 2006).
# Experiments:
# blood-brain barrier = assay: Blood-brain barrier integrity by Evan's blue dye extravasation after cortical impact injury; type: in vivo, rat; details: for blood-brain barrier permeability (Evans Blue extravasation): measured 24 h after TBI, vs vehicle
# Method: Blood-brain barrier integrity was assessed using extravagation of Evan's blue (EB) dye. When injected through the jugular vein of normal animals, EB is not detected in the nervous tissue. However, if the blood-brain barrier is compromised, EB can be detected in nervous tissues. The amount of EB can be quantified by extracting the dye from the tissue followed by spectrophotometric analysis at 610 nm wavelength. One and one-half hours prior to the above time points, animals were anesthetized and injected with 3% EB in saline (4 ml/kg) through the jugular vein. Animals were transcardially perfused with phosphate-buffered saline (PBS) until the out-coming liquid was clear followed by 4% paraformaldehyde (400 ml). The brain was removed and 2 mm-thick sections were prepared and incubated with 3 ml of 99.5% formamide in a 60° C. water bath for 24 hr. At the end of the incubation, tissues were removed and the formamide solution was centrifuged in an Eppendorf centrifuge at 12,000 rpm for 20 min. The supernatant solution was collected and the optical density at 610 nm was measured to determine the relative amount of EB dye in each sample.
# aquaporin-4 (AQP4) = system: aquaporin-4 (AQP4)
# Excerpt: (§1) This model utilizes a pneumatic piston to deform a controllable volume of exposed cortex over a range of impact velocities. All protocols were in compliance with NIH's Guide for the Care and Use of Laboratory Animals and approved by the Institutional Animal Care and Use Committee. A controlled cortical impact device was used to cause brain trauma as previously described^6,7,26. Rats were anesthetized using 5% isoflurane with a 1:1 N2O:O2 mixture. The animals were then maintained with a 2% isoflurane/2:1 N2O:O2 mixture, via a face mask. Animals were mounted in the injury device stereotaxic frame secured by ear bars and an incisor bar. The head was held in a horizontal plane with respect to the interaural line. A midline incision was made, the soft tissues reflected, and bilateral 6 mm craniectomies were made midway between the bregma and lambda with the medial edge of each craniectomy 1 mm lateral to midline. Rats received a single impact at 1.8 mm deformation with an impact velocity of 6 m/sec at an angle of 20° from the vertical plane. Core body temperature was maintained at 37-38° C. by use of a rectal thermometer coupled to a heating pad. Sham rats were anesthetized and received craniectomies but were not cortically impacted. After injury or sham operation, the scalp was sutured and the animal placed in an oxygenated chamber and monitored during recovery. All rats were allowed to completely recover from the anesthesia after the surgery in a warm chamber before being sent back to the home cages. The type of brain trauma employed in this study produces both motor and cognitive deficits similar to those seen in human patients^6.
# (§2) Rats were killed and brains were removed quickly and dip-frozen in −80° C. isopentane for 20 sec.
# [1] = system: endothelial barrier antigen (EBA); details: 5 mg/kg and 20 mg/kg i.p. at 6 h after injury; samples at 24 h; cortices ipsilateral to injury; P<0.05 vs vehicle
# Excerpt: as §1, §2
# [2] = system: glial fibrilary acidic protein (GFAP); details: 24 hr after injury; vehicle vs SUL-treated animals
# Excerpt: as §1, §2
# [3] = system: rat endothelial cell antigen (RECA); details: 5 mg/kg and 20 mg/kg i.p. at 6 h after injury; samples at 24 h; cortices ipsilateral to injury; P<0.05 vs vehicle
# Excerpt: as §1, §2
# [4] = system: tight junction proteins (claudin-5, occludin, ZO-1); details: administration six hours after injury; P<0.05 vs injury+vehicle
# Excerpt: as §1, §2
# [5] = system: von-Willebrand factor (vWF); details: administration six hours after injury; vs injury+vehicle
# Excerpt: as §1, §2
# brain injured rats [6] = system: brain injured rats
# Excerpt: as §1
# brain swelling (edema) = details: P<0.05 vs vehicle
# Excerpt: as §1
# brain injured rats [7] = details: 5 mg/kg i.p. 6 hr post-injury, P<0.05 vs vehicle
# Excerpt: as §1, with “All rats were allowed to completely recover from the anesthesia after the surgery in a warm chamber before being sent back to the home cages. The type of brain trauma employed in this study produces both motor and cognitive deficits similar to those seen in human patients^6.” left out
# AQP4 mRNA = details: 5 mg/kg i.p.; 24 hr post-administration; cortical tissue; vehicle 100.00±18.16%; mean±S.E.M., n=3; P<0.05
# Method: Animals were killed and parietal cortical tissues were quickly dissected out and frozen in dry ice. The frozen tissue was homogenized in 1.5ml of TriZol (Invitrogen) per 100 mg tissue, followed by addition of chloroform (1:5) and incubation on ice for 20 min. The homogenate was centrifuged at 14,000×g for 30 min, and total RNA was precipitated by isopropanol. 1.0 jig total RNA was reverse transcribed for 2 hours at 37° C. in a 20μl mixture containing 50 mM Tris-HCl pH 8.3, 75 mM KCl, 3.0 mM MgCl2, 10 mM DTT, 2.5 μM random hexamer, 1.0 mM each dNTP, 20 U RNasin, and 200 U Superscript II reverse transcriptase. The level of expression of each target gene was quantified using a BioRad iCycler real-time PCR system (BioRad, Hercules, CA). Reactions were carried out in triplicate. Each 30 μl reaction mixture consisted of 1.5 μl of the cDNA and 18 mM Tris-HCl pH 8.3, 55 mM KCl, 2.0 mM MgCl2, 0.2 mM of each dNTP, 0.5μM of each primer, 10 nM fluorescein, 1:75,000 dilution of Sybr green I, and 2 U AmpliTaq DNA polymerase. […] The resultant data was analyzed using the iCycler iQ Real-Time Detection System software^33.
# To assess the ability of SUL to induce AQP4 expression, rats were intraperitonealy injected with either 5 mg/kg SUL prepared in corn oil or equal volume of vehicle. […] AQP4 mRNA levels were evaluated using real-time PCR. […]
# [8] = system: focal cerebral ischemia (CCA/MCA occlusion); details: 5 mg/kg i.p. 15 minutes after onset of ischemia; 3 hours CCA/MCA occlusion; three days following ischemia; vehicle 153.87±11.01 mm^3; P<0.05
# Method: Focal ischemia was induced by temporary left common carotid/middle cerebral artery (CCA/MCA) occlusion^1,41. Briefly, rats were anesthetized with chloral hydrate (0.45 g/kg IP). Core body temperature was maintained at 36.5±0.5° C. during ischemia The ipsilateral CCA was isolated and tagged through a ventral, cervical midline incision. A 0.005-inch-diameter stainless steel wire (Small Parts Inc) was placed underneath the left MCA rostral to the rhinal fissure, proximal to the major bifurcation of the MCA, and distal to the lenticulostriate arteries. The artery was then lifted, and the wire was rotated clockwise to ensure occlusion. The CCA was next occluded with an atraumatic aneurysm clip. Cerebral perfusion at the cortical surface, 3 mm distal to the locus of the MCA occlusion, was measured with a laser-Doppler flowmeter (LDF) (model BPM2, Vesamedic). […] After 180 minutes of MCA/CCA occlusion, reperfusion was established by reversing the occlusion procedure. […]
# Morphometric determination of infarct volume was obtained with the help of a computer-based image analyzer operated by Brain software (Drexel University). […] The infarct volume (mm^3) was calculated from the difference between the volume of contralateral cortex and the volume of the TTC-stained (nonischemic) portion of ipsilateral cortex of each rat. […]
# cortical cultures = details: pretreatment prior to hydrogen peroxide or glutamate exposure; in vitro; cited from earlier work
structure (smiles),measurement,setting,value
C=CCN=C=S [allyl isothiocyanate],blood-brain barrier permeability (Evans Blue extravasation),blood-brain barrier; 2.8 mg/kg i.p. 6 hr after brain trauma,decreased blood-brain barrier permeability
S=C=NCCc1ccccc1 [phenylethyl isothiocyanate],blood-brain barrier permeability (Evans Blue extravasation),blood-brain barrier; 4.6 mg/kg i.p. 6 hr after brain trauma,decreased blood-brain barrier permeability
C[S@@+]([O-])CCCCN=C=S [sulforaphane],blood-brain barrier permeability (Evans Blue extravasation),blood-brain barrier; 5 mg/kg i.p. 6 hr after brain trauma,decreased blood-brain barrier permeability
same,Evan's blue dye extravasation into brain tissue (OD at 610 nm),"blood-brain barrier; 5 mg/kg i.p. at 6 h after TBI, 24 hr and 72 hr time points, ipsilateral side, P<0.05 vs vehicle",significantly attenuate dye extravasation
same,extravasation of Evan's Blue dye,"blood-brain barrier; oral 60 mg/kg/day for one or four days, day one given 6 hr following brain injury, P<0.05 vs vehicle",effective in decreasing the extravasation of Evan's Blue dye
same,AQP4 immuno-fluorescence intensity in the injury core,"aquaporin-4 (AQP4); 5 mg/kg i.p. at 6 hr after injury, 24 hr after injury, mean±S.E.M., n=4, injury-vehicle 13.79±2.22%, P<0.05",35.25±3.13%
same,AQP4 levels (fluorescence intensity) in the penumbra region,"aquaporin-4 (AQP4); post-injury administration, at both 24 hr and 3 days following injury, P<0.05 vs vehicle",significantly increased
same,"EBA staining, integrated fluorescent intensity",[1],significantly improves
same,GFAP immunoreactivity in the penumbra region,[2],lack of difference
same,"RECA staining, integrated fluorescent intensity",[3],significantly improves
same,"tight junction protein levels (claudin-5, occludin, ZO-1 immunoreactivity)",[4],significantly attenuated the loss
same,vWF levels (immunoreactivity),[5],partially restored
same,spatial learning and memory (latency to find the hidden platform),"brain injured rats [6]; 5 mg/kg 6 hr post-injury, days 14-18 post-injury, n=9, P<0.05 vs vehicle",improved spatial learning and memory
same,"working memory: latency to hidden platform, match trial vs location trial","brain injured rats [6]; 5mg/kg i.p. 6 hr post-injury, tested day 21 post-injury, n=8, P<0.05",find the hidden platform significantly faster during the match trial
same,difference in brain water content between injured and uninjured hemispheres,"brain swelling (edema); 5 mg/kg ip at 15 min and at 6 hr after injury, measured at 3 day following injury",significantly decreases the difference in brain water content
same,brain water content (difference in percent water content between injured and uninjured hemispheres),"brain swelling (edema); 5 mg/kg ip at 15 min and at 6 hr following injury, measured 24 hr following injury",decreases brain water content
same,increase in brain water content (difference between injured and uninjured hemispheres),"brain swelling (edema); delayed administration, 5 mg/kg ip at 6 hr after injury, measured at 3 days after injury",significantly reduces the increase in brain water content
same,extinction of fear memory (freezing during extinction training),"brain injured rats [7]; extinction on day 23 post-injury, n=8",Extinction was more rapid
same,memory for the extinction event (freezing to the tone),"brain injured rats [7]; tested 48 hr following extinction training, 3 tone presentations",reduced freezing to the tone
same,AQP4 mRNA level,AQP4 mRNA,289.76±16.52%
same,total infarct volume,[8],100.52±16.35 mm^3
same,neuroprotection of cortical cultures,cortical cultures,robust neuroprotection
